Source: patent EP2663342B1, “STABLE HYDROGEL COMPOSITIONS INCLUDING PHENYLEPHRINE” (ALLERGAN, INC., priority 2011, dated 2012)
Each block holds one compound with its values, some of them ahead of it.

Columns and labels:
Type in all cases: physicochemical
[1] = Extrusion force of HA-based gel at 3 years equivalent at room temperature
Protocol: (§1) The hydrogel properties, aspect (i.e., color/clarity/homogeneity), and extrusion force were analyzed after autoclaving and at 3 years equivalent at room temperature.

[2] = Extrusion force of HA-based gel after autoclaving; details: ΔF vs HA gel without the added ingredients
Text: Stability of a hydrogel composition disclosed herein can be determined by subjecting a hydrogel composition to a heat treatment, such as, e.g., steam sterilization at normal pressure or under pressure (e.g., autoclaving). […] Substantial stability of a hydrogel composition disclosed herein can be evaluated 1) by determining the change in the extrusion force (ΔF) of a hydrogel composition disclosed herein after sterilization, where the change in extrusion force less 2N is indicative of a substantially stable hydrogel composition as measured by (the extrusion force of a hydrogel composition with the specified additives) minus (the extrusion force of the a hydrogel composition without the added additives); and/or 2) by determining the change in rheological properties of a hydrogel composition disclosed herein after sterilization, where the change in tan δ 1 Hz of less than 0.1 is indicative of a substantially stable hydrogel composition as measured by (tan δ 1 Hz of gel formulation with additives) minus (tan δ 1 Hz of gel formulation without additives). As such, a substantially stable hydrogel composition disclosed herein retains one or more of the following characteristics after sterilization: homogeneousness, extrusion force, cohesiveness, hyaluronan concentration, agent(s) concentration, osmolarity, pH, or other rheological characteristics desired by the hydrogel before the heat treatment.
as §1

[3] = Aspect (color/clarity/homogeneity) of HA-based gel after autoclaving; details: for Aspect: after autoclaving and at 3 years equivalent at room temperature
Protocol: The active ingredient was incorporated into a HA-based gel matrix and autoclaved by steam sterilization at a temperature between about 130 °C to about 135 °C for between about one minute and about 10 minutes. The hydrogel properties, aspect (i.e., color/clarity/homogeneity), and extrusion force were analyzed after autoclaving and at 3 years equivalent at room temperature. All formulations were clear, homogenous, uncolored, and had acceptable extrusion force properties after autoclaving and at the 3-year equivalent mark (Table 3).
Ascorbic acid, at a concentration of 1% (w/w) was, incorporated in a HA-based gel matrix, and the pH of the gel adjusted to about 7 and then autoclaved by steam sterilization at a temperature between about 130 °C to about 135 °C for between about one minute and about 10 minutes.

[4] = Oxidation testing: degradation by free radicals (H2O2) on a rheometer; details: gel with AA2G and lidocaine versus gel with lidocaine
Text: The effect of ascorbic acid 2-glucoside (AA2G™) on HA-based gel matrix oxidative degradation was studied. Oxidation testing was used as it allows testing of the resistance of a HA-based gel matrix to free radicals. Degradation by free radicals was simulated on a rheometer (Haake Rheostress 600) by addition of 1/7 ratio of H2O2 30% on the surface of a spread gel measured with a controlled stress rheometer according to the following method: frequency of 1 Hz with 0.8% controlled strain, during 3600 s at 35 °C. The time value is taken at 5 Pa/s.

[5] = Aspect (color/clarity/homogeneity) of HA-based gel after autoclaving
[6] = ingredient at 0.3 % in HA-based gel matrix
[7] = ingredient at 0.5 % in HA-based gel matrix
[8] = ingredient at 1 % in HA-based gel matrix

Compound: NC(=O)NC1NC(=O)NC1=O (stereo not drawn) [Allantoin]
- Extrusion force (N) 3 years ∼ room T °C [1, 6]: PASSED (the change of extrusion force (ΔF) was less than two Newtons (< 2 N))
- Extrusion force (N) 3 years ∼ room T °C [1, 7]: PASSED (the change of extrusion force (ΔF) was less than two Newtons (< 2 N))
- Extrusion force (N) after autoclaving [2, 6]: PASSED (the change of extrusion force (ΔF) was less than two Newtons (< 2 N))
- Extrusion force (N) after autoclaving [2, 7]: PASSED (the change of extrusion force (ΔF) was less than two Newtons (< 2 N))

Compound: Cc1cc(=O)n(-c2ccccc2)n1C [Antipyrin, reference compound]
- Extrusion force (N) 3 years ∼ room T °C [1, 7]: PASSED (the change of extrusion force (ΔF) was less than two Newtons (< 2 N))
- Extrusion force (N) 3 years ∼ room T °C [1, 8]: PASSED (the change of extrusion force (ΔF) was less than two Newtons (< 2 N))
- Extrusion force (N) after autoclaving [2, 7]: PASSED (the change of extrusion force (ΔF) was less than two Newtons (< 2 N))
- Extrusion force (N) after autoclaving [2, 8]: PASSED (the change of extrusion force (ΔF) was less than two Newtons (< 2 N))
- Aspect [3, 7]: Clear Homogeneous Uncolored
- Aspect [3, 8]: Clear Homogeneous Uncolored

Compound: O=C1O[C@H]([C@@H](O)CO)C(O)=C1O[C@H]1O[C@H](CO)[C@@H](O)[C@H](O)[C@H]1O [Ascorbic acid 2-Glucoside]
- protected against oxidative degradation by a factor [4]: 3
- aspect of gel after autoclaving ([5]; 0.6% (w/w), 1% (w/w), or 2% (w/w) AA2G in HA-based gel matrix, pH about 7, same before autoclaving): clear and uncolored

Compound: O=C1O[C@H]([C@@H](O)CO)C(O)=C1O [Ascorbic acid, (5R)-[(1S)-1,2-dihydroxyethyl]-3,4-dihydroxyfuran-2(5H)-one]
- aspect of gel after autoclaving ([3]; 1% (w/w) in HA-based gel matrix, pH about 7, clear and uncolored before autoclaving): clear but yellowed

Compound: Nc1ccn([C@@H]2O[C@H](CO)[C@@H](O)[C@H]2O)c(=O)n1 [Cytidine]
- Extrusion force (N) 3 years ∼ room T °C [1, 7]: PASSED (the change of extrusion force (ΔF) was less than two Newtons (< 2 N))
- Extrusion force (N) 3 years ∼ room T °C [1, 8]: PASSED (the change of extrusion force (ΔF) was less than two Newtons (< 2 N))
- Extrusion force (N) after autoclaving [2, 7]: PASSED (the change of extrusion force (ΔF) was less than two Newtons (< 2 N))
- Extrusion force (N) after autoclaving [2, 8]: PASSED (the change of extrusion force (ΔF) was less than two Newtons (< 2 N))

Compound: CC(C)(CO)[C@@H](O)C(=O)NCCCO [Dexpanthenol]
- aspect of gel after autoclaving ([5]; 1% (w/w) in HA-based gel matrix comprising 0.3% (w/w) lidocaine, same before autoclaving): clear and uncolored

Compound: CNC[C@H](O)c1ccc(O)c(O)c1 [Epinephrine bitartrate]
- aspect of gel after autoclaving ([5]; 10 ppm in HA-based gel matrix comprising 0.3% (w/w) lidocaine, clear and uncolored before autoclaving): clear but colored
- aspect of gel after autoclaving ([5]; 10 ppm in HA-based gel matrix, same before autoclaving): clear and uncolored
- aspect of gel after autoclaving ([5]; 20 ppm in HA-based gel matrix comprising 0.3% (w/w) lidocaine and 4.5% (w/w) mannitol, clear and uncolored before autoclaving): slightly colored

Compound: CNC[C@H](O)c1ccc(O)c(O)c1 [Epinephrine, (R)-4-(1-hydroxy-2-(methylamino)ethyl)benzene-1,2-diol]
- aspect of gel after autoclaving ([5]; 10 ppm in HA-based gel matrix with 0.9% (w/w) mannitol): slightly colored
- aspect of gel after autoclaving ([5]; 10 ppm in HA-based gel matrix with 4.5% (w/w) mannitol, same before autoclaving): clear and uncolored

Compound: CC12CCC(CC1)C(C)(C)O2 [Eucalyptol]
- Extrusion force (N) 3 years ∼ room T °C [1, 7]: PASSED (the change of extrusion force (ΔF) was less than two Newtons (< 2 N))
- Extrusion force (N) after autoclaving [2, 7]: PASSED (the change of extrusion force (ΔF) was less than two Newtons (< 2 N))

Compound: OCC(O)CO [Glycerin]
- Extrusion force (N) 3 years ∼ room T °C [1, 7]: PASSED (the change of extrusion force (ΔF) was less than two Newtons (< 2 N))
- Extrusion force (N) after autoclaving [2, 7]: PASSED (the change of extrusion force (ΔF) was less than two Newtons (< 2 N))

Compound: Cc1c(C)c2c(c(C)c1OP(=O)([O-])[O-])CCC(C)(CCCC(C)CCCC(C)CCCC(C)C)O2.[Na+].[Na+] (stereo not drawn) [Sodium Tocopheryl Phosphate]
- aspect of gel after autoclaving ([5]; 0.4% (w/w) or 1.2% (w/w) in HA-based gel matrix): unclear and white

Compound: CNCC(O)c1ccc(O)cc1 (stereo not drawn) [Synephrine, 4-[1-hydroxy-2-(methylamino)ethyl]phenol]
- aspect of gel after autoclaving ([5]; 100 ppm synephrine in HA-based gel matrix comprising 0.3% (w/w) lidocaine, same before autoclaving): clear and uncolored

Compound: Cc1cn([C@H]2C[C@H](O)[C@@H](CO)O2)c(=O)[nH]c1=O [Thymidine]
- Extrusion force (N) 3 years ∼ room T °C [1, 7]: PASSED (the change of extrusion force (ΔF) was less than two Newtons (< 2 N))
- Extrusion force (N) 3 years ∼ room T °C [1, 8]: PASSED (the change of extrusion force (ΔF) was less than two Newtons (< 2 N))
- Extrusion force (N) after autoclaving [2, 7]: PASSED (the change of extrusion force (ΔF) was less than two Newtons (< 2 N))
- Extrusion force (N) after autoclaving [2, 8]: PASSED (the change of extrusion force (ΔF) was less than two Newtons (< 2 N))

The next lines start with results.

- aspect of gel after autoclaving ([5]; 0.6% (w/w), 1% (w/w) or 2% (w/w) MAP in HA-based gel matrix, pH about 7, same before autoclaving): clear and uncolored
Compound: O=C1O[C@H]([C@@H](O)CO)C([O-])=C1OP(=O)([O-])[O-].O=C1O[C@H]([C@@H](O)CO)C([O-])=C1OP(=O)([O-])[O-].[Mg+2].[Mg+2].[Mg+2] [Magnesium Ascorbyl Phosphate]

- aspect of gel after autoclaving ([5]; 100 ppm naphazoline in HA-based gel matrix comprising 0.3% (w/w) lidocaine, same before autoclaving): clear and uncolored
Compound: c1ccc2c(CC3=NCCN3)cccc2c1 [Naphazoline, 2-(1-naphthylmethyl)-2-imidazoline]

- aspect of gels after autoclaving ([5]; 100 ppm or 400ppm phenylephrine in HA-based gel matrixes comprising 0.3% (w/w) lidocaine, same before autoclaving): clear and uncolored
Compound: CNC[C@H](O)c1cccc(O)c1 [Phenylephrine, (R)-3-[-1-hydroxy-2-(methylamino)ethyl]phenol]

- aspect of gel after autoclaving ([5]; 0.6% (w/w), 1% (w/w), or 2% (w/w) SAP in HA-based gel matrix, pH about 7, same before autoclaving): clear and uncolored
Compound: O=C1O[C@H]([C@@H](O)CO)C([O-])=C1OP(=O)([O-])[O-].[Na+].[Na+].[Na+] [Sodium Ascorbyl Phosphate]

- aspect of gel after autoclaving ([5]; 0.5% (w/w) or 1.2% (w/w) in HA-based gel matrix): unclear and white
Compound: CC(=O)Oc1c(C)c(C)c2c(c1C)CCC(C)(CCC[C@H](C)CCC[C@H](C)CCCC(C)C)O2 (stereo partly drawn) [Tocopheryl Acetate]

- aspect of gel after autoclaving ([5]; 0.4% (w/w) tranexamic acid in HA-based gel matrix comprising 0.3% (w/w) lidocaine, same before autoclaving): clear and uncolored
Compound: NC[C@H]1CC[C@H](C(=O)O)CC1 [Tranexamic acid, reference compound]
- Extrusion force (N) 3 years ∼ room T °C [1, 7]: PASSED (the change of extrusion force (ΔF) was less than two Newtons (< 2 N))
- Extrusion force (N) after autoclaving [2, 7]: PASSED (the change of extrusion force (ΔF) was less than two Newtons (< 2 N))

- Aspect [3, 7]: Clear Homogeneous Uncolored
- Aspect [3, 8]: Clear Homogeneous Uncolored
Compound: O=c1ccn([C@@H]2O[C@H](CO)[C@@H](O)[C@H]2O)c(=O)[nH]1 [Uridine]
- Extrusion force (N) 3 years ∼ room T °C [1, 7]: PASSED (the change of extrusion force (ΔF) was less than two Newtons (< 2 N))
- Extrusion force (N) 3 years ∼ room T °C [1, 8]: PASSED (the change of extrusion force (ΔF) was less than two Newtons (< 2 N))
- Extrusion force (N) after autoclaving [2, 7]: PASSED (the change of extrusion force (ΔF) was less than two Newtons (< 2 N))
- Extrusion force (N) after autoclaving [2, 8]: PASSED (the change of extrusion force (ΔF) was less than two Newtons (< 2 N))

- aspect of gel after autoclaving ([5]; 0.7% (w/w) in HA-based gel matrix): clear, but heterogeneous
Compound: Polyoxyethanyl-α-tocopheryl sebacate
